Measurements reported in patent US20230391788A1 (NAVIN SAXENA RESEARCH & TECHNOLOGY PVT. LTD., priority 2020, published 2023).

Columns and labels:
[1] = after oral dosing; cited from earlier work
[2] = Storage stability of naltrexone decanoate; assay type: physicochemical; conditions: storage condition of less than 25° C.

Row | SMILES | time at which peak plasma levels occur [1] | period over which stable [2] [months]
1 | Oc1ccc2c3c1O[C@H]1[C@H](O)CC[C@@]4(O)[C@@H](C2)N(CC2CC2)CC[C@]314 [6-β-naltrexol] | one | –
2 | CCCCCCCCCC(=O)Oc1ccc2c3c1O[C@H]1C(=O)CC[C@@]4(O)[C@@H](C2)N(CC2CC2)CC[C@]314 [naltrexone decanoate, 17-(cyclopropylmethyl)-4,5-epoxy-14-hydroxy-3-[(1-oxodecyl)oxy]-(5α)-morphinan-6-one] | – | ≤ 60
3 | O=C1CC[C@@]2(O)[C@H]3Cc4ccc(O)c5c4[C@@]2(CCN3CC2CC2)[C@H]1O5 [naltrexone, Naltrexone, reference compound] | one | –
